For 13 compounds, IC50, EC50 and melting point results are on record in patent US20230391756A1, “NEW COMPOUND” (JANSSEN PHARMACEUTICA NV, priority 2020, published 2023).

The subject of data set [1] is NLRP3 inflammasome pathway (IL-1β). Put plainly: PBMC assay: IL-1β release after LPS stimulation. As to conditions: human PBMCs, 100 ng/ml LPS for 6 hrs, MSD. It counts as cell-based.
The next data set relates to TNF. Put plainly: PBMC assay: TNF cytokine level after LPS stimulation. As to conditions: human PBMCs, 100 ng/ml LPS for 6 hrs, MSD, read-out: TNFα EC50. It counts as cell-based. Put shortly: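 Thawed healthy-donor human PBMCs, 7.5×10^4 cells per well, preincubated 30 min at 37° C, then stimulated with 100 ng/ml LPS (final) for 6 hrs. Supernatant TNF (and IL-1β) measured by MSD immunoassay.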

Structures are written as SMILES. pEC50, pIC50: −log10 of the molar value.

Compound `CC(C)n1nc(CC(=O)Nc2ccc3c(C#N)ncn3c2)c(=O)c2ccc(C(F)(F)F)cc21` [F-36] yielded a melting point of 259.8 °C. The compound also showed a negative-log IC50 (pIC50) in data set [1] of 6.00. Moreover, the negative-log EC50 (pEC50) in the data set on TNF was under 4.70.

As for `CCn1nc(CC(=O)Nc2ccc3nncn3n2)c(=O)c2ccc(Cl)cc21` [F-34], the melting point came to 206.5 °C. Further, the pIC50 in data set [1] is 6.31. The pEC50 in the data set with TNF is under 4.70.

`CC(F)(F)c1ccc2c(=O)c(CC(=O)Nc3ccc4nccn4n3)nn(C3CC3)c2c1` [F-64] registered a melting point of 188.9 °C. In data set [1], the pIC50 is 6.59. For the same compound, in the data set with TNF, the negative-log EC50 (pEC50) is 5.10.

Regarding `Cc1ccc2c(c1)nc(NC(=O)Cc1nn(C(C)C)c3cc(C(F)(F)F)ccc3c1=O)n2C` [F-94], the melting point worked out at 217.3 °C. In addition, the negative logarithm of the IC50 (pIC50) in data set [1] was under 4.70. Also, the pEC50 in the data set with TNF is under 4.70.

`CC(C)n1nc(CC(=O)NC2CCc3ncn(C)c3C2)c(=O)c2ccc(C(F)(F)F)cc21` (stereo not drawn) [F-43] had a melting point of 221 °C. Besides, the pIC50 in data set [1] is 5.29. For the same compound, the negative logarithm of the EC50 (pEC50) in the data set with TNF is under 4.70.

Turning to `O=C(Cc1nn(C2CC2)c2cc(Br)ccc2c1=O)Nc1ccc2nccn2n1` [F-66], the melting point amounted to 244.6 °C. In data set [1], this compound had a pIC50 of 6.64. In addition, in the data set with TNF, the pEC50 was under 4.70.

`CCn1nc(CC(=O)Nc2ccc3nncn3c2)c(=O)c2ccc(C(C)(C)F)cc21` [F-74] came in with a melting point of 238.2 °C. Besides, the negative-log IC50 (pIC50) in data set [1] is 6.40. Further, the pEC50 in the data set on TNF was 4.90.

Turning to `CC(C)n1nc(CC(=O)Nc2ccn3cnnc3c2)c(=O)c2ccc(C(F)(F)F)cc21` [F-17], the melting point was determined as 212.3 °C. Also, the pIC50 in data set [1] was 5.27. In the data set on TNF, the pEC50 was under 4.70.

Compound `CC(C)n1nc(CC(=O)Nc2ccc3nnc(C(F)F)n3c2)c(=O)c2ccc(C(F)(F)F)cc21` [F-39] had a melting point of 226.8 °C. The compound further gave a negative logarithm of the IC50 (pIC50) in data set [1] of 5.68. Besides, the negative-log EC50 (pEC50) in the data set with TNF was 4.76.

Take `CC(C)n1nc(CC(=O)Nc2nc3cc(C#N)ccc3n2C)c(=O)c2ccc(C(F)(F)F)cc21` [F-101]: the melting point is 243.8 °C. In data set [1], this compound showed a negative logarithm of the IC50 (pIC50) of 4.82. For the same compound, the negative logarithm of the EC50 (pEC50) in the data set with TNF was about 4.78.

In turn, `CCn1nc(CC(=O)Nc2ccc3nncn3c2)c(=O)c2ccc(Cl)cc21` [F-27] returned a melting point of 254.3 °C. The same compound showed a pIC50 in data set [1] of 6.21. Moreover, the pEC50 in the data set on TNF was under 4.70.

`CC(C)n1nc(CC(=O)Nc2ccncn2)c(=O)c2ccc(C(F)(F)F)cc21` [F-22] showed a melting point of 178.3 °C. In data set [1], this compound gave a pIC50 of 6.33. Moreover, the pEC50 in the data set with TNF is 4.91.

The compound `CC(C)n1nc(CC(=O)N[C@H]2C[C@@](C)(O)C2)c(=O)c2ccc(C(F)(F)F)cc21` [F-21] had a melting point of 200.9 °C. In addition, in data set [1], the pIC50 was 6.08. Further, the pEC50 with TNF was under 4.70.
